Test systems include HCC-2998 colon; OVCAR-3 ovarian; CCRF-CEM leukemia; LOX IMVI melanoma; SNB-75 CNS; NCI-H460 lung; EKVX NSCLC; SN12C renal; SNB-19 CNS; HOP-92 NSCLC.
What all share (assay): NCI anticancer screen, dose series, 48 h

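Interpolation was linear, between the two tested concentrations surrounding the appropriate level; five concentrations were tested over 48 hours in 96-well plates. The concentration for 50% growth inhibition is given as GI50. TGI marks complete inhibition of growth.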 Some results are limits rather than exact numbers.

Regarding `CN(C)CC1CC/C(=C\c2ccc(Cl)c(Cl)c2)C1=O` (stereo not given), the TGI is over 58.5 µM with HCC-2998 colon; over 61.5 µM with OVCAR-3 ovarian; 22.7 µM with CCRF-CEM leukemia; 18.4 µM in the assay on LOX IMVI melanoma; over 66.6 µM in the assay with SNB-75 CNS; 36.1 µM in the assay on NCI-H460 lung. In addition, the TGI in the assay with EKVX NSCLC is over 58.7 µM; in the assay on SN12C renal, over 55.8 µM; in the assay on SNB-19 CNS, over 56.1 µM; in the assay with HOP-92 NSCLC, 48.2 µM.

In the case of `O=C(/C=C\c1ccc(O)c(O)c1)c1ccccc1O`, the GI50 in the assay with HCC-2998 colon was 13.9 µM; with OVCAR-3 ovarian, 8.86 µM; in the assay on CCRF-CEM leukemia, 645 nM; in the assay with LOX IMVI melanoma, 11 µM; in the assay on SNB-75 CNS, 14700 nM; with NCI-H460 lung, 15.1 µM. In addition, the GI50 was 14.4 µM in the assay on EKVX NSCLC, 11.8 µM in the assay with SN12C renal, 17.4 µM in the assay on SNB-19 CNS and 3770 nM with HOP-92 NSCLC. Besides, the TGI was 27 µM with HCC-2998 colon; 24.2 µM with OVCAR-3 ovarian; over 100 µM in the assay with CCRF-CEM leukemia; 23.1 µM in the assay on LOX IMVI melanoma; 94.3 µM in the assay with SNB-75 CNS; 49.8 µM in the assay with NCI-H460 lung. In addition, the TGI in the assay on EKVX NSCLC was over 100 µM; in the assay on SN12C renal, 37.5 µM; in the assay on SNB-19 CNS, 91.8 µM; with HOP-92 NSCLC, 27.7 µM.

Turning to `COc1ccc(C2=NN(C(N)=S)C(c3ccc4c(c3)OCO4)C2)cc1` (stereo not given), the GI50 with HCC-2998 colon was 2.3 µM; in the assay on OVCAR-3 ovarian, 2.07 µM; with CCRF-CEM leukemia, 2500 nM; with LOX IMVI melanoma it was 2.19 µM; in the assay on SNB-75 CNS it was 2750 nM; in the assay with NCI-H460 lung, 2.6 µM. The GI50 in the assay on EKVX NSCLC was 2.54 µM; in the assay on SN12C renal it was 3.37 µM; in the assay with SNB-19 CNS, 3.13 µM; with HOP-92 NSCLC it was 2120 nM. Also, the TGI in the assay with HCC-2998 colon amounted to 5.85 µM; with OVCAR-3 ovarian it was 4.72 µM; with CCRF-CEM leukemia, 8.18 µM; with LOX IMVI melanoma, 4.99 µM; in the assay on SNB-75 CNS, 8.51 µM; with NCI-H460 lung it was 6.83 µM. In addition, the TGI in the assay on EKVX NSCLC is 37.9 µM; in the assay with SN12C renal it was over 100 µM; in the assay on SNB-19 CNS, 22.8 µM; in the assay on HOP-92 NSCLC it was 8.05 µM.

Consider `O=c1nc2n(-c3cccc(Cl)c3)c3ccc([N+](=O)[O-])cc3cc-2c(=O)[nH]1`, for which the GI50 with HCC-2998 colon is 4.92 µM; in the assay on OVCAR-3 ovarian, 1.08 µM; in the assay with CCRF-CEM leukemia, 2090 nM; with LOX IMVI melanoma, 1.93 µM; in the assay with SNB-75 CNS it was 11700 nM; with NCI-H460 lung, 9.77 µM. Besides, the GI50 was 11.9 µM with EKVX NSCLC, 4.55 µM in the assay with SN12C renal, 7.5 µM in the assay with SNB-19 CNS and 7750 nM in the assay on HOP-92 NSCLC. In addition, the TGI in the assay with HCC-2998 colon is 11 µM; in the assay with OVCAR-3 ovarian it was 4.42 µM; in the assay with CCRF-CEM leukemia, over 25 µM; in the assay on LOX IMVI melanoma it was 9.52 µM; in the assay on SNB-75 CNS it was over 25 µM; with NCI-H460 lung, over 25 µM. Moreover, the TGI in the assay on EKVX NSCLC is over 25 µM; in the assay with SN12C renal, 10.6 µM; in the assay with SNB-19 CNS, over 25 µM; with HOP-92 NSCLC, 24.7 µM.

With `CNC(=O)Oc1cc(C(C)C)ccc1Sc1ccc(C(C)C)cc1OC(=O)NC`, the GI50 in the assay on HCC-2998 colon was 12.2 µM; in the assay on OVCAR-3 ovarian, 4.39 µM; in the assay with CCRF-CEM leukemia, 3410 nM; in the assay with LOX IMVI melanoma, 6.09 µM; with SNB-75 CNS, 2880 nM; in the assay with NCI-H460 lung, 2.44 µM. Further, the GI50 with EKVX NSCLC is 1.59 µM; in the assay on SN12C renal it was 7 µM; in the assay with SNB-19 CNS, 9.57 µM; with HOP-92 NSCLC, 2630 nM. Moreover, the TGI amounted to 27.7 µM in the assay with HCC-2998 colon; 14.7 µM in the assay on OVCAR-3 ovarian; 46.3 µM with CCRF-CEM leukemia; 27.6 µM in the assay with LOX IMVI melanoma; 12.2 µM with SNB-75 CNS; 11 µM in the assay with NCI-H460 lung. For the same compound, the TGI with EKVX NSCLC was 7.14 µM; with SN12C renal, 24 µM; in the assay on SNB-19 CNS, 24.4 µM; in the assay with HOP-92 NSCLC it was 9.85 µM.

Regarding `C/C(=C\C(=O)O[C@H]1[C@@H]2[C@H](C)CC[C@H]2[C@]2(C)O[C@@]1(C1CCCCC1)C[C@H]2OC(=O)CO)c1ccccc1`, the GI50 is 7.32 µM in the assay on HCC-2998 colon; 7.69 µM with OVCAR-3 ovarian; 7000 nM in the assay on CCRF-CEM leukemia; 6.97 µM with LOX IMVI melanoma; 331 nM in the assay on SNB-75 CNS; 6.86 µM in the assay with NCI-H460 lung. Besides, the GI50 in the assay with EKVX NSCLC is 6.46 µM; with SN12C renal it was 0.0228 µM; with SNB-19 CNS, 7.41 µM; with HOP-92 NSCLC, 2070 nM. Also, the TGI in the assay on HCC-2998 colon worked out at 14.4 µM; with OVCAR-3 ovarian, 13.9 µM; with CCRF-CEM leukemia it was 15.3 µM; in the assay with LOX IMVI melanoma, 12.9 µM; in the assay with SNB-75 CNS it was 7.21 µM; in the assay on NCI-H460 lung, 14.1 µM. Further, the TGI came to 12.5 µM in the assay with EKVX NSCLC, 7.18 µM with SN12C renal, 13.1 µM in the assay with SNB-19 CNS and 8.09 µM with HOP-92 NSCLC.
